Marks after values point to notes of the source that are not given here.
Experiments:
[1] = test system: vascular endothelial injury induced thrombosis model in zebrafish; test: Preventative effect on vascular endothelial injury induced thrombosis, ponatinib zebrafish model (Example 1); type: in vivo; conditions: 4.00 ng/tail injected
Experimental: Experimental method: 420 tails of 5 dpf wild type AB strain zebrafish were randomly selected and placed in a six-well plate, with 30 fish per well (experimental group). The fish were injected with compound (1), compound (2), compound (3), compound (4), compound (5), compound (6), compound (7), compound (8), compound (9), compound (10), and compound (11) (structural formula shown in Table 1) at a dose of 4.00 ng/tail, with positive control drug acetylsalicylic acid being administered by dissolving it in water at a concentration of 30.0 µg/mL. Normal control group (i.e. zebrafish treated with standard diluted water) and model control group were set up, with a capacity of 3 mL per well (experimental group). Except for normal control group, the remaining experimental groups were all given Punatinib by dissolving it in water to induce vascular endothelial injury induced thrombosis model in zebrafish. The zebrafish were stained with o-dianisidine after co-treatment with ponatinib and samples for a period of time under incubation conditions at 28° C.
After staining, 10 zebrafish in each group were randomly selected and photographed under the microscope, and the intensity of cardiac erythrocyte staining in zebrafish was analyzed using NIS-Elements D 3.20 advanced image-processing software, and the samples were evaluated for the preventative effect on vascular endothelial injury induced thrombosis by the statistical results of cardiac erythrocyte staining intensity.
The preventative effect on thrombosis is calculated as follows: […]
Statistical analysis was performed using SPSS software, and p<0.05 indicates significant differences

[2] = test system: vascular inflammation in high-glucose and high-fat zebrafish; test: Regressive effect on vascular inflammation in high-glucose and high-fat zebrafish (Example 9); type: in vivo
Experimental: Experimental method: 360 tails of 5 dpf macrophage fluorescent zebrafish were randomly selected and placed in beakers with 30 tails in each beaker, compound (1), compound (3), and compound (5) were given intravenously, and the positive control group was given atorvastatin calcium by dissolving it in water at a concentration of 30 μg/mL, while the normal control group (fish farming water-treated zebrafish) and the model control group were set up, and the volume of each beaker (experimental group) was 25 mL. Except for the normal control group, all other groups were given high-lipids and high-sucrose feed by dissolving it in water. Compound (1), compound (3) and compound (5) group were co-treated with high-lipids and high-sucrose feed for 30 h. The treatment was carried out up to 9 dpf, and 10 zebrafish were randomly selected from each experimental group to collect the intensity of the macrophage fluorescence within the tail vein and around the tail vein of the zebrafish under fluorescence microscope, and the results of the statistical analysis were used to evaluate the regressive effect of compound (1), compound (3), compound (5) on zebrafish vascular inflammation in the high sugar and high fat model.

[3] = test system: iron content in Erastin-induced neuronal cells; test: Iron content (PGSK probe) in Erastin-induced neuronal cells (Example 8); type: cell-based, rat; conditions: Erastin 50 μM
Experimental: (§1) Experimental method: Primary neuron cells were incubated in a medium containing Erastin (final concentration of 50 μM) for 24 hours, and then incubated in a medium containing different concentrations of the test drug and Erastin (final concentration of 50 μM) for another 24 hours. After incubation, Real time PCR was used to detect mRNA expression of GPX4 in each group of cells, CCK8 assay was used to detect cell viability in each group of cells, C11-BODIPY probe method was used to detect intracellular lipid ROS levels in each group of cells, and PGSK probe method was used to detect iron content in cells.
(§2) The experimental data were expressed in means±SD, and statistical differences between groups were determined using one-way ANOVA and Tukey's test, with p-values less than 0.05 considered significant.
After incubation, the PGSK probe method was used to detect the intracellular iron content. The results were presented as Mean±SD. Compared with the control group, ***p<0.0001; Compared with the model group, #p<0.05, ##p<0.01.

[4] = test system: lipid ROS levels in Erastin-induced nerve cells; test: Lipid ROS levels (C11-BODIPY probe) in Erastin-induced nerve cells (Example 8); type: cell-based, rat; conditions: Erastin 50 μM
Experimental: as §1, §2
After incubation, the C11-BODIPY probe method was used to detect the lipid ROS levels in each group of cells. The results were presented as Mean±SD. Compared with the control group, ***p<0.0001; compared with the model group, #p<0.05, ##p<0.01.

GPX4 mRNA = GPX4 mRNA expression (real time PCR) in Erastin-induced neuronal cells (Example 8); type: cell-based, rat; conditions: Erastin 50 μM
Experimental: as §1, §2
After incubation, real time PCR was used to detect the mRNA expression of GPX4 in each group of cells. The results were presented as Mean±SD. Compared with the control group, ***p<0.0001; Compared with the model group, #p<0.05, […].

[5] = test system: Erastin-induced neuronal cells; test: Cell viability (CCK8) of Erastin-induced neuronal cells (Example 8); type: cell-based, rat; conditions: Erastin 50 μM
Experimental: as §1, §2
After incubation, the CCK8 experiment was used to detect the cell viability of each group of cells. The results were presented as Mean±SD. Compared with control group, ***p<0.0001. Compared with model control group, ^#P<0.05, ^##P<0.01.

[6] = test system: rats with focal cerebral ischemia (MCAO)/reperfusion; test: Therapeutic administration, cerebral ischemia-reperfusion injury MCAO/R in rats (Example 7); type: in vivo, rat; conditions: 6 mg/kg i.v. once 1 h after reperfusion
Experimental: Experimental method: SD rats were randomly divided into 11 groups, including pseudosurgery group, a model control group, positive control drug edaravone via intravenous injection (6 mg/kg, i.v.) group, positive control drug butylphthalide injection via intravenous injection (5 mg/kg, i.v.) group, compound (1) high-dose (24 mg/kg, i.v.), medium-dose (12 mg/kg, i.v.), low-dose (6 mg/kg, i.v.) via intravenous injection group, positive drug butylphthalide soft capsule via intragastric administration (60 mg/kg, i.g.) group, and compound via intragastric administration at (1) high-dose (60 mg/kg, i.g.), medium-dose (30 mg/kg, i.g.), low-dose (15 mg/kg, i.g.) group. A middle cerebral artery occlusion (MCAO) model for cerebral ischemia-reperfusion of male rats was prepared using the internal carotid suture-occluded method with an ischemic time of 90 min followed by reperfusion. Injection and oral administration for once were performed 1 h after reperfusion, and neurobehavioral scoring was performed on rats after 24 h to determine neurological function in rats; the cerebral infarction rate and cerebral water content of rats were determined by 2,3,5-triphenyltetrazolium chloride (TTC) staining.

CC(=O)N[C@H](CSCC1OC2OC3C(CSC[C@@H](NC(C)=O)C(=O)[O-])OC(OC4C(CSC[C@@H](NC(C)=O)C(=O)[O-])OC(OC5C(CSC[C@@H](NC(C)=O)C(=O)[O-])OC(OC6C(CSC[C@@H](NC(C)=O)C(=O)[O-])OC(OC7C(CSC[C@@H](NC(C)=O)C(=O)[O-])OC(OC8C(CSC[C@@H](NC(C)=O)C(=O)[O-])OC(OC1C(O)C2O)C(O)C8O)C(O)C7O)C(O)C6O)C(O)C5O)C(O)C4O)C(O)C3O)C(=O)[O-].[Na+].[Na+].[Na+].[Na+].[Na+].[Na+].[Na+] (stereo partly drawn) [Compound (5)]
Preventative effect on thrombosis (%) [1]: 64%
Cardiac erythrocyte staining intensity (pixels, mean ± SE) ([1]; n = 10): 4340 ± 255 pixels
Cardiac erythrocyte staining intensity (pixels, mean ± SE) ([1]; n = 10, listed as compound (5)): 4340 pixels
Anti-inflammatory effect (%) ([2]; 27.8 ng/tail intravenous): 38*** %
Fluorescence intensity of perivascular macrophage (pixels, Mean ± SE) ([2]; 27.8 ng/tail intravenous): 113678 ± 4811 pixels
Anti-inflammatory effect (%) ([2]; 83.3 ng/tail intravenous): 36*** %
Fluorescence intensity of perivascular macrophage (pixels, Mean ± SE) ([2]; 83.3 ng/tail intravenous): 118039 ± 9198 pixels
Anti-inflammatory effect (%) ([2]; 250 ng/tail intravenous): 37*** %
Fluorescence intensity of perivascular macrophage (pixels, Mean ± SE) ([2]; 250 ng/tail intravenous): 115627 ± 5934 pixels
Iron content (PGSK probe) ([3]; 1 μM, control = 100, PGSK fluorescence, weaker = more iron): 56.75 ± 9.31^
Iron content (PGSK probe) ([3]; 2.5 μM): 68.32 ± 6.01^
Iron content (PGSK probe) ([3]; 5 μM): 72.65 ± 7
Iron content (PGSK probe) ([3]; 10 μM): 76.52 ± 7.86^#
Iron content (PGSK probe) ([3]; 20 μM): 80.28 ± 6.96^##
Iron content (PGSK probe) ([3]; 40 μM): 87.37 ± 9.57^##
Lipid ROS levels (%) ([4]; 1 μM, control = 100, Mean±SD): 145.89 ± 5.33%
Lipid ROS levels (%) ([4]; 2.5 μM): 141.47 ± 6.53%
Lipid ROS levels (%) ([4]; 5 μM): 133.09 ± 9.69%
Lipid ROS levels (%) ([4]; 10 μM): 128.99 ± 9.84^# %
Lipid ROS levels (%) ([4]; 20 μM): 122.71 ± 8.5^## %
Lipid ROS levels (%) ([4]; 40 μM): 114.82 ± 7.13^## %
Expression of GPX4 mRNA (GPX4 mRNA; 1 μM, control about 1.00, Mean±SD): 0.4777 ± 0.07^
Expression of GPX4 mRNA (GPX4 mRNA; 2.5 μM): 0.5373 ± 0.08^
Expression of GPX4 mRNA (GPX4 mRNA; 5 μM): 0.6033 ± 0.06^#
Expression of GPX4 mRNA (GPX4 mRNA; 10 μM): 0.6942 ± 0.01^##
Expression of GPX4 mRNA (GPX4 mRNA; 20 μM): 0.7693 ± 0.1^##
Expression of GPX4 mRNA (GPX4 mRNA; 40 μM): 0.8368 ± 0.07^##
Cell viability (%) ([5]; 1 μM, 24 h, control = 100, Mean±SD): 58.95 ± 7.21%
Cell viability (%) ([5]; 2.5 μM): 62.63 ± 7.82%
Cell viability (%) ([5]; 5 μM): 67.38 ± 6.73%
Cell viability (%) ([5]; 10 μM): 73.74 ± 7.33^# %
Cell viability (%) ([5]; 20 μM): 79.85 ± 6.34^## %
Cell viability (%) ([5]; 40 μM): 84.2 ± 4.71^## %

O=S(=O)(O)CCCCOCC1OC2OC3C(COCCCCS(=O)(=O)O)OC(OC4C(COCCCCS(=O)(=O)O)OC(OC5C(COCCCCS(=O)(=O)O)OC(OC6C(COCCCCS(=O)(=O)O)OC(OC7C(COCCCCS(=O)(=O)O)OC(OC8C(COCCCCS(=O)(=O)O)OC(OC1C(O)C2O)C(O)C8O)C(O)C7O)C(O)C6O)C(O)C5O)C(O)C4O)C(O)C3O (stereo not drawn) [Compound (11)]
Preventative effect on thrombosis (%) [1]: 79%
Cardiac erythrocyte staining intensity (pixels, mean ± SE) ([1]; n = 10): 4749 ± 12 pixels
Cardiac erythrocyte staining intensity (pixels, mean ± SE) ([1]; n = 10, listed as compound (11)): 4749 pixels

CC1=NN(c2ccccc2)C(=O)C1 [Edaravone, edaravone, reference compound]
Behavioral score [6]: 1.62 ± 0.51
Cerebral water content (%) [6]: 79.81 ± 1.03 %
Cerebral infarction rate (%) ([6]; after 24 h, mean ± SD, n = 8): 10.23 ± 7.87 %

Source: patent publication US20250064886A1, “CARDIOVASCULAR AND CEREBROVASCULAR DRUG AND USE THEREOF” (HANGZHOU ADAMERCK PHARMLABS INC., priority 2021, published 2025)
